By IC50 is commonly meant the concentration at which inhibition is half-maximal. Lower therefore signals higher potency.

Test in all cases: in vitro kinase activity assay
Holding throughout (format): biochemical

In one test the target is T1, BMPR2 (Homo sapiens, UniProt Q13873).
T1 sequence (Q13873 27-1038): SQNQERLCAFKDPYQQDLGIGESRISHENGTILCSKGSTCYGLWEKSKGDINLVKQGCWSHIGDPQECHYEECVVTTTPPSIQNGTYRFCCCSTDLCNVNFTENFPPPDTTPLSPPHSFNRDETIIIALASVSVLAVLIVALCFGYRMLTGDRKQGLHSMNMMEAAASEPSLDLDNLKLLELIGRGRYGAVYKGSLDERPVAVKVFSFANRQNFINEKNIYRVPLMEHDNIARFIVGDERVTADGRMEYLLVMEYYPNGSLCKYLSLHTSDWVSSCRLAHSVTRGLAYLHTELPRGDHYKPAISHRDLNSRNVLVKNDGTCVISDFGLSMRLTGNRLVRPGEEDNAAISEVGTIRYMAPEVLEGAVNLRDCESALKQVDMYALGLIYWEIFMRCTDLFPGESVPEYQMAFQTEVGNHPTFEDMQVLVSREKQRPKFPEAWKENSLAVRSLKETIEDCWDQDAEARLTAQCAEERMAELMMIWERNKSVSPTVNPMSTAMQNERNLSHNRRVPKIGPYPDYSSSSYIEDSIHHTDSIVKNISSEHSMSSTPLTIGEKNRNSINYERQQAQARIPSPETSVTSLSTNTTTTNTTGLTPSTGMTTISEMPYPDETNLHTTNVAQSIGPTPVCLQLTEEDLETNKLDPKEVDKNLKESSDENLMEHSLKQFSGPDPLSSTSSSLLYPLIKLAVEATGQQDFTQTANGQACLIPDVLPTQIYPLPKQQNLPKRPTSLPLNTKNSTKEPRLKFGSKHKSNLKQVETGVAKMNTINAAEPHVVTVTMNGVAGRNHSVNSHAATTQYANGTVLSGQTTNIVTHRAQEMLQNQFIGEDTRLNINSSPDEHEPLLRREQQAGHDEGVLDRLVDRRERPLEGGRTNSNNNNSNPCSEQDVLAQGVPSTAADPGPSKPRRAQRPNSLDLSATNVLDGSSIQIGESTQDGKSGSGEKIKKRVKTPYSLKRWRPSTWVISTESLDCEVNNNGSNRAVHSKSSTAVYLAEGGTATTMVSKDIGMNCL

Another test addresses BMPR1A (Homo sapiens, UniProt P36894).
Another test has as its target T2, TGFBR1 (Homo sapiens, UniProt P36897).
T2 sequence (P36897 34-503): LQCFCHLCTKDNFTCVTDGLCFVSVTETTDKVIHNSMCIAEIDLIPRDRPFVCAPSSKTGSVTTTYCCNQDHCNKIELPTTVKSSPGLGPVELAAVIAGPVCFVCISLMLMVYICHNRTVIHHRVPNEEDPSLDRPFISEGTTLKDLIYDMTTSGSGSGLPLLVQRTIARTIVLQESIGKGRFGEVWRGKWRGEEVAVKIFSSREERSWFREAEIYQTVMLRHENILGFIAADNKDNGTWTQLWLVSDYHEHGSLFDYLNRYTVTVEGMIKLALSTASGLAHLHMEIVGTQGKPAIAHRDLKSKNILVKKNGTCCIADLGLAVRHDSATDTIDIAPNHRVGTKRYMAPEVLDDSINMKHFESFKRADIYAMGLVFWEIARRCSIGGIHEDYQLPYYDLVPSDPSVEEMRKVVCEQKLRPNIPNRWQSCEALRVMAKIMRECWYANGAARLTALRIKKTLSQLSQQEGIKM

The next test addresses BMPR1B (Homo sapiens, UniProt O00238).

Sequence of BMPR1A (P36894 24-532): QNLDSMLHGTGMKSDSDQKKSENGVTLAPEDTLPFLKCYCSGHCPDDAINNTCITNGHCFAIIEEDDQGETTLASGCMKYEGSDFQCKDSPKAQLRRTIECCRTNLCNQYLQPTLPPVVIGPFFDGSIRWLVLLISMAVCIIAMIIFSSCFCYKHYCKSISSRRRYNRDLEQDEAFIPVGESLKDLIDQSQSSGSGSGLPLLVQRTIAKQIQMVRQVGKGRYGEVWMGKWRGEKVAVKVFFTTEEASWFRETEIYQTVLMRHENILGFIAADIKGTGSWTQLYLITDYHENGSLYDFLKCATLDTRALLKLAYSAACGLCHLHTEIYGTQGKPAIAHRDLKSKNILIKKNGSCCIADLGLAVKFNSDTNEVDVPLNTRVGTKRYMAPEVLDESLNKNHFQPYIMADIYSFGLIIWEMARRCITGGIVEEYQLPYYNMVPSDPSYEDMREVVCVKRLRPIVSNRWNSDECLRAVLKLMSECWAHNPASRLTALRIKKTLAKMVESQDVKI
Sequence of BMPR1B (O00238 14-502): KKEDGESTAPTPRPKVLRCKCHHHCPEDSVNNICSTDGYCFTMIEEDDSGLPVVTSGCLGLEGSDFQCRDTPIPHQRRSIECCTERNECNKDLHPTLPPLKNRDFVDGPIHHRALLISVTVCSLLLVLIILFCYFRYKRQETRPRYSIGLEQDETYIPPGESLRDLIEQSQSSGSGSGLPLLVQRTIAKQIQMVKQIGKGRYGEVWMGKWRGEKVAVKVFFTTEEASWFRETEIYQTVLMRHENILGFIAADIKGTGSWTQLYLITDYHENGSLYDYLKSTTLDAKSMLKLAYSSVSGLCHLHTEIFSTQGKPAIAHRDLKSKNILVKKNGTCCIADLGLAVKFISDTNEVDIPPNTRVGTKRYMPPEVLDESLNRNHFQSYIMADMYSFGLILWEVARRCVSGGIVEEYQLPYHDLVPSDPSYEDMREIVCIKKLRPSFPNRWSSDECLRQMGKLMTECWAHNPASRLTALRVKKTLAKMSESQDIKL

In the case of `O=C1Nc2ccc(O)cc2/C1=C\c1ccc(O)c(O)c1` [ZL170, (E)-3-(3,4-dihydroxybenzylidene)-5-hydroxyindolin-2-one], the IC50 was found to be 201 nM against BMPR2, 806 nM against BMPR1A, 1040 nM on TGFBR1 and 1100 nM against BMPR1B.
